Measurements from patent US20260345621A1, “GABAA RECEPTOR MODULATORS AND USES THEREOF” (Engrail Therapeutics, Inc., priority 2022, published 2026).
Entries after “also recorded” stand apart in the source; their conditions may differ. Like-named read-outs stand apart in the source and are kept apart here.

Test: Multiple ascending dose study, plasma pharmacokinetics
Type: in vivo, human (healthy volunteers)
Details: for AUC(0-t) at 24 h / Cmax at 24 h / AUC tau / Cmax at 288 h / half-life: human, plasma, po
Experimental: A clinical study was developed to evaluate safety, tolerability, pharmacokinetics, and pharmacodynamics of Compound 1 at plasma steady-state in 40 healthy human volunteers. Compound 1 (provided as Compound 1 phosphate) was administered to participants as multiple ascending doses of 0.5 mg (N=6), 1.0 mg (N=6), 1.5 mg (N=6), 2.0 mg (N=6), or 5.0 mg (N=6) once daily (QD) for 12 days.
Blood samples were collected, and plasma concentrations were measured using a validated high performance liquid chromatography/liquid chromatography-mass spectrometry/mass spectrometry method. The PK parameters assessed included Cmax, Tmax, AUC from administration to the end of dosing (AUC0-t), AUC0-24, AUC0-inf, t1/2, terminal rate constant (λz), apparent total clearance of the drug from plasma (CL/F), and apparent volume of distribution during terminal phase after non-intravenous administration (Vz/F).
The plasma concentration data for Compound 1 were summarized by dose level and the planned sampling time points using descriptive statistics (n, SD, median, minimum, maximum, geometric mean, and coefficient of variance (CV %) for the geometric mean) for the PK Analysis Set.
Specifically, samples for PK analyses were taken on Day 1 and Day 12 pre-dose, 0.5, 1, 1.5, 3, 6, 8, 10, and 12 h post-dose, with additional samples taken on every dosing Day (24 hours after the previous day's dose) and 24, 72, 168, and 336 h after last dosing on Day 12. All individual Compound 1 concentrations were above the LLOQ of 0.0500 ng/mL at 0.5 h post-dose, except for 1 participant, for whom the concentration was above the LLOQ at 1 h post-dose.

[1] = 0.5 mg oral QD, Day 1, 1440 min
[2] = 1.0 mg oral QD, Day 1, 1440 min
[3] = 1.5 mg oral QD, Day 1, 1440 min
[4] = 2.0 mg oral QD, Day 1, 1440 min

CC(C)(O)c1cnn2c(-c3ccc(F)c(-c4c(F)cccc4C#N)c3)cnc2n1 [Compound 1, 2′,6-difluoro-5′-(3-(2-hydroxypropan-2-yl)imidazo[1,2-b][1,2,4]triazin-7-yl)-[1,1′-biphenyl]-2-carbonitrile]
AUC0-24 (mean) [1]: 52.56 ng·h/mL
Cmax (mean) [1]: 4.615 ng/mL
AUCtau (mean) (0.5 mg oral QD, Day 12): 197.54 ng·h/mL
t1/2 (mean) (0.5 mg oral QD, Day 12): 65.610 h
Cmax (mean) (0.5 mg oral QD, Day 12, 17280 min): 11.660 ng/mL
AUC0-24 (mean) [2]: 117.81 ng·h/mL
Cmax (mean) [2]: 8.497 ng/mL
AUCtau (mean) (1.0 mg oral QD, Day 12): 410.07 ng·h/mL
t1/2 (mean) (1.0 mg oral QD, Day 12): 60.876 h
Cmax (mean) (1.0 mg oral QD, Day 12, 17280 min): 23.333 ng/mL
AUC0-24 (mean) [3]: 216.99 ng·h/mL
Cmax (mean) [3]: 18.833 ng/mL
AUCtau (mean) (1.5 mg oral QD, Day 12): 705.65 ng·h/mL
t1/2 (mean) (1.5 mg oral QD, Day 12): 50.526 h
AUC0-24 (mean) [4]: 243.73 ng·h/mL
Cmax (mean) [4]: 19.633 ng/mL
AUCtau (mean) (2.0 mg oral QD, Day 12): 873.17 ng·h/mL
t1/2 (mean) (2.0 mg oral QD, Day 12): 61.167 h
Cmax (mean) (2.0 mg oral QD, Day 12, 17280 min): 49.817 ng/mL
AUC0-24 (mean) (5.0 mg oral QD, Day 1, 1440 min): 641.92 ng·h/mL
t1/2 (mean) (5.0 mg oral QD, Day 12): 38.695 h
trend of t1/2 or λz with increasing dose (0.5-5.0 mg oral QD): no trend towards change in t1/2 or λz with increasing dose
dose proportionality of exposure (Cmax and AUC, 0.5-5.0 mg oral QD): generally increased dose- and concentration-proportionally; also recorded: Dose-proportional PK were confirmed over the investigated dose range
median time of the last quantifiable concentration (all cohorts, Day 1): approximately 24 h
linearity of dose normalized Cmax and AUC0-24 (arguable exception 1.5 mg): consistent with linear kinetics
AUC(0-t) at 24 h (0.5 mg, 0.5 mg oral QD, Day 1, read-out: AUC0-24 (mean)): 53 ± 7 ng·h/mL
AUC(0-t) at 24 h (0.5 mg, 0.5 mg oral QD, Day 1, read-out: AUC0-24 (median)): 54.8 ng·h/mL
Cmax at 24 h (0.5 mg, 0.5 mg oral QD, Day 1, read-out: Cmax (mean)): 4.6 ± 2 ng/mL
Cmax at 24 h (0.5 mg, 0.5 mg oral QD, Day 1, read-out: Cmax (median)): 4.58 ng/mL
AUC tau (0.5 mg, 0.5 mg oral QD, Day 12, read-out: AUCtau (mean)): 198 ± 51 ng·h/mL
AUC tau (0.5 mg, 0.5 mg oral QD, Day 12, read-out: AUCtau (median)): 201 ng·h/mL
Cmax at 288 h (0.5 mg, 0.5 mg oral QD, Day 12, read-out: Cmax (mean)): 11.7 ± 4 ng/mL
Cmax at 288 h (0.5 mg, 0.5 mg oral QD, Day 12, read-out: Cmax (median)): 11.6 ng/mL
half-life (0.5 mg, 0.5 mg oral QD, Day 12, read-out: t1/2 (mean) (converted)): 66 ± 24 h
half-life (0.5 mg, 0.5 mg oral QD, Day 12, read-out: t1/2 (median) (converted)): 64.3 h
AUC(0-t) at 24 h (1 mg, 1.0 mg oral QD, Day 1, read-out: AUC0-24 (mean)): 118 ± 27 ng·h/mL
AUC(0-t) at 24 h (1 mg, 1.0 mg oral QD, Day 1, read-out: AUC0-24 (median)): 117 ng·h/mL
Cmax at 24 h (1 mg, 1.0 mg oral QD, Day 1, read-out: Cmax (mean)): 8.5 ± 3 ng/mL
Cmax at 24 h (1 mg, 1.0 mg oral QD, Day 1, read-out: Cmax (median)): 8.99 ng/mL
AUC tau (1 mg, 1.0 mg oral QD, Day 12, read-out: AUCtau (mean)): 410 ± 115 ng·h/mL
AUC tau (1 mg, 1.0 mg oral QD, Day 12, read-out: AUCtau (median)): 416 ng·h/mL
Cmax at 288 h (1 mg, 1.0 mg oral QD, Day 12, read-out: Cmax (mean)): 23.3 ± 5 ng/mL
Cmax at 288 h (1 mg, 1.0 mg oral QD, Day 12, read-out: Cmax (median)): 22.6 ng/mL
half-life (1 mg, 1.0 mg oral QD, Day 12, read-out: t1/2 (mean) (converted)): 61 ± 29 h
half-life (1 mg, 1.0 mg oral QD, Day 12, read-out: t1/2 (median) (converted)): 58.2 h
AUC(0-t) at 24 h (1.5 mg, 1.5 mg oral QD, Day 1, read-out: AUC0-24 (mean)): 217 ± 48 ng·h/mL
AUC(0-t) at 24 h (1.5 mg, 1.5 mg oral QD, Day 1, read-out: AUC0-24 (median)): 227 ng·h/mL
Cmax at 24 h (1.5 mg, 1.5 mg oral QD, Day 1, read-out: Cmax (mean)): 18.8 ± 7 ng/mL
Cmax at 24 h (1.5 mg, 1.5 mg oral QD, Day 1, read-out: Cmax (median)): 18.2 ng/mL
AUC tau (1.5 mg, 1.5 mg oral QD, Day 12, read-out: AUCtau (mean)): 706 ± 84 ng·h/mL
